Reference: patent US20260174682A1, “GAMMA-AMINOBUTYRIC ACID DERIVATIVE COMPRISING POLYCYCLIC STRUCTURE, METHOD FOR PREPARING SAME, AND USE THEREOF” (ZHONGSHAN INSTITUTE FOR DRUG DISCOVERY, SIMM, CAS., priority 2022, published 2026)
Where two headings read alike, the source gives them in different places. Marks after values point to notes of the source that are not given here.

Key:
[1] = test system: mouse 6-Hz psychomotor seizure model; assay: Antiepileptic effect in mouse 6-Hz psychomotor seizure model; assay type: in vivo; conditions: 6-Hz model, C57BL/6 mice, gavage, dose 300 mg/kg
Experimental: A negative vehicle control group, a positive drug control group (pregabalin and gabapentin) and a test group of the compounds of the present application were set. Male C57BL/6 mice with a body weight of 20±2 g were selected. […] After fasted for 12 h, the mice were administered the compounds of the present application or the control drugs, and then subjected to 6-Hz electrical stimulation to induce epilepsy seizure behaviors after a certain time interval (2 h for pregabalin, 1 h for gabapentin, 1 h for levetiracetam, and 3 h for the compounds of the present application). In an induction model, when the stimulation was performed with a Model 4100 stimulator (A-M Systems, the United States), rear necks of the mice were immobilized by hands on a feeding cage, a corneal electrode was moisten with normal saline and allowed to gently contact bilateral corneas of the mice, the electrical stimulator was trod by a foot to give the mice the electrical stimulation with a stimulation parameter of 6-Hz, a one-way square wave of 32 mA, a wave width of 0.2 ms and a stimulation duration of 3 sec, and timing was performed with a stopwatch during the stimulation. After the electrical stimulation was completed, the mice with the seizure behaviors lasting for less than 7 sec were regarded as being protected by the drugs, and the mice with the seizure behaviors lasting for more than 7 sec were regarded as being not protected from the epilepsy by the drugs. Response situations of the animals were observed and recorded, and obtained data were counted to calculate protection rates of the compounds.
Statistical method: The protection rates of different administration groups were separately compared with that of the vehicle control group to carry out a Fisher's exact test.

[2] = test system: mouse maximum electroshock model (MES); assay: Antiepileptic effect in mouse maximum electroshock model (MES); assay type: in vivo; conditions: MES, ICR mice, gavage, dose 300 mg/kg
Experimental: A negative vehicle control group, a positive drug control group (pregabalin and gabapentin) and a test group of the compounds of the present application were set. Male ICR mice with a body weight of […] were selected. […] After fasted for 12 h, the mice were administered the compounds of the present application or the control drugs according to the body weight, and then subjected to electrical stimulation to induce generalized tonic-clonic seizure behaviors after a certain lime interval (2 h for pregabalin, 1 h for gabapentin, and 3 h for the compounds of the present application). A YLS-9A electrophysiological stimulator (Shanghai Xinruan Information Technology Co., Ltd.) was used in an induction model, and parameters were set as follows: configuration 8, stimulation voltage 160 V, wave number 90. When the electrical stimulation was performed, ears on both sides of the mice were firstly wiped with normal saline and then given the electrical stimulation for 1 lime with ear clip electrodes. Tonic straightening of hind limbs was used as a standard for epilepsy seizures. The animals with the tonic straightening of hind limbs were regarded as not being protected by the drugs, and the animals without the tonic straightening of hind limbs were regarded as being protected by the drugs. Response situations of the animals were observed and recorded, and obtained data were counted to calculate protection rates of the compounds.
Median effective doses (ED50) of the compounds to be tested for animal protection were calculated by a least square method (Graphpad Prism 5) with an administration dose-protection rate curve.

[3] = test system: mouse model with subcutaneous injection of pentylenetetrazole (sc-PTZ); assay: Antiepileptic effect in mouse model with subcutaneous injection of pentylenetetrazole (sc-PTZ); assay type: in vivo
Experimental: A negative vehicle control group, a positive drug control group (pregabalin and gabapentin) and a test group of the compounds of the present application were set. Male ICR mice with a body weight of 22±2 g were selected. […] After fasted for 12 h, the mice were administered the compounds of the present application or the control drugs, and then subcutaneously injected with pentylenetetrazole (PTZ) to induce epilepsy seizure behaviors after a certain time interval (2 h for pregabalin, 1 h for gabapentin, and 3 h for the compounds of the present application). In an induction model, pentylenetetrazole (PTZ) was dissolved in normal saline and administered to the mice through the way of subcutaneous injection (10 mL/kg, administration dose 100 mg/kg). After the injection of PTZ, behavioral observations on the mice were conducted for 1 h, and the latent periods and numbers of the mice with convulsive seizures, clonic seizures, tonic seizures and death after the injection of PTZ were recorded.
Statistical method: Protection rates and mortality of different administration groups were separately compared with those of the vehicle control group to carry out a Fisher's exact test. The seizure time and the latent periods were analyzed by one-way ANOVA.

postherpetic neuralgia = conditions: cited from earlier work
[4] = test system: diabetic peripheral neuropathic pain; conditions: cited from earlier work
[5] = sc-PTZ 100 mg/kg, ICR mice, intraperitoneal 30 mg/kg (own compounds calculated by free base), 1 h observation

| Compound | Number of animals with clonic seizures/total number [1] | Protection rate (%) [1] | Number of animals with tonic straightening of hind limbs/total number of detected animals [2] | Protection rate (%) [2] [%] | Clonic seizure incidence [3, 5] | Convulsive seizure incidence [3, 5] | Generalized clonic seizure incidence [3, 5] | Mortality [3, 5] | Tonic seizure incidence [3, 5] | improvement of the convulsive seizure incidence and the mortality ([3]; sc-PTZ mice, 30 mg/kg) | latent periods of generalized clonic seizures, tonic seizures and death ([3]; sc-PTZ mice, 30 mg/kg (calculated by free base), FIG. 6) | clinical effective rate (postherpetic neuralgia; daily dose up to 1,800 mg/day) [%] | clinical effective rate (postherpetic neuralgia; daily dose up to 2,400 mg/day) [%] | clinical effective rate (postherpetic neuralgia; daily dose up to 3,600 mg/day) [%] | clinical effective rate ([4]; 60 mg/day) [%] | clinical effective rate ([4]; 120 mg/day) [%] |
| --- | --- | --- | --- | --- | --- | --- | --- | --- | --- | --- | --- | --- | --- | --- | --- | --- |
| NCC1(CC(=O)O)CCCCC1 [Gabapentin] | 2/4 | 50.0 * % | 2/8 | 75.0 | 10/10 | 10/10 | 10/10 | 7/10 | 6/10 | does not significantly improve | not effective | 32 | 34 | 43 | – | – |
| CNCC[C@H](Oc1cccc2ccccc12)c1cccs1 [duloxetine] | – | – | – | – | – | – | – | – | – | – | – | – | – | – | 49 | 52 |
